# Laboratory results as given in patent US7297700B2, “Bicycloheteroaryl compounds as P2X7 modulators and uses thereof” (Renovis, Inc., priority 2005, dated 2007).
# Test system: IL-1β release from THP-1 cells
# Experiment: IL-1β Release Assay (Alternate Method), THP-1 cells
# Format: cell-based, human
# Details: Homo sapiens, THP-1, read-out: IL-1β % inhibition
# How it was run: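 IL-1β release, measured by ELISA, follows 45 min BzATP (250 uM final) stimulation of THP-1 cells given 30 min compound pretreatment. Cells were first primed 16 h with LPS and IFN-γ (100 ng/mL each), then 2 h with fresh LPS; inhibition expressed in percent after background correction.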
row,SMILES,inhibition at 0.3 µM
1,O=C(Nc1ncnc2c1CCN(S(=O)(=O)c1ccccc1)C2)C12CC3CC(CC(C3)C1)C2 [Compound 481],25 to 50%

# Same assay, conditions: at 0.3 μM; THP-1 cells
row,SMILES,IL-1β % inhibition
1,O=C(c1ccc(F)c(F)c1)N1CCc2c(ncnc2NC(=O)C23CC4CC(CC(C4)C2)C3)C1 [Compound 405],++ (compound exhibited 25-50% inhibition at 0.3 μM)

# Same assay, conditions: at 0.3 μM; THP-1 cells, BzATP-stimulated
row,SMILES,IL-1β % inhibition
1,O=C(c1cccc(C(F)(F)F)c1)N1CCc2c(ncnc2NC(=O)C23CC4CC(CC(C4)C2)C3)C1 [Compound 406],++ (compound exhibited 25-50% inhibition at 0.3 μM)
2,COc1ccc(C(=O)N2CCc3c(ncnc3NC(=O)C34CC5CC(CC(C5)C3)C4)C2)cc1 [Compound 407],+ (compound exhibited 0-25% inhibition at 0.3 μM)
3,O=C(C(c1ccccc1)c1ccccc1)N1CCc2c(ncnc2NC(=O)C23CC4CC(CC(C4)C2)C3)C1 [Compound 409],+ (compound exhibited 0-25% inhibition at 0.3 μM)
4,O=C(Cc1ccc(F)cc1)N1CCc2c(ncnc2NC(=O)C23CC4CC(CC(C4)C2)C3)C1 [Compound 413],++ (compound exhibited 25-50% inhibition at 0.3 μM)
5,N#Cc1cccc(C(=O)N2CCc3c(ncnc3NC(=O)C34CC5CC(CC(C5)C3)C4)C2)c1 [Compound 414],++ (compound exhibited 25-50% inhibition at 0.3 μM)
6,O=C(c1ccc(C(F)(F)F)cc1)N1CCc2c(ncnc2NC(=O)C23CC4CC(CC(C4)C2)C3)C1 [Compound 415],+ (compound exhibited 0-25% inhibition at 0.3 μM)
7,O=C(c1ccc(Cl)c(Cl)c1)N1CCc2c(ncnc2NC(=O)C23CC4CC(CC(C4)C2)C3)C1 [Compound 417],+ (compound exhibited 0-25% inhibition at 0.3 μM)
8,COc1cc(OC)cc(C(=O)N2CCc3c(ncnc3NC(=O)C34CC5CC(CC(C5)C3)C4)C2)c1 [Compound 418],++ (compound exhibited 25-50% inhibition at 0.3 μM)
9,O=C(c1c(F)cccc1F)N1CCc2c(ncnc2NC(=O)C23CC4CC(CC(C4)C2)C3)C1 [Compound 419],+ (compound exhibited 0-25% inhibition at 0.3 μM)
10,O=C(COc1ccccc1)N1CCc2c(ncnc2NC(=O)C23CC4CC(CC(C4)C2)C3)C1 [Compound 421],+ (compound exhibited 0-25% inhibition at 0.3 μM)
11,COc1cccc(C(=O)N2CCc3c(ncnc3NC(=O)C34CC5CC(CC(C5)C3)C4)C2)c1 [Compound 422],++ (compound exhibited 25-50% inhibition at 0.3 μM)
12,O=C(c1ccc(F)cc1)N1CCc2c(ncnc2NC(=O)C23CC4CC(CC(C4)C2)C3)C1 [Compound 423],++ (compound exhibited 25-50% inhibition at 0.3 μM)
13,CC(C)(C)C(=O)N1CCc2c(ncnc2NC(=O)C23CC4CC(CC(C4)C2)C3)C1 [Compound 424],+ (compound exhibited 0-25% inhibition at 0.3 μM)
14,O=C(c1cccc(Cl)c1)N1CCc2c(ncnc2NC(=O)C23CC4CC(CC(C4)C2)C3)C1 [Compound 425],+ (compound exhibited 0-25% inhibition at 0.3 μM)
15,O=C(COCc1ccccc1)N1CCc2c(ncnc2NC(=O)C23CC4CC(CC(C4)C2)C3)C1 [Compound 428],+ (compound exhibited 0-25% inhibition at 0.3 μM)
16,O=C(c1ccc(Cl)cc1Cl)N1CCc2c(ncnc2NC(=O)C23CC4CC(CC(C4)C2)C3)C1 [Compound 430],++ (compound exhibited 25-50% inhibition at 0.3 μM)
17,COc1cccc(CC(=O)N2CCc3c(ncnc3NC(=O)C34CC5CC(CC(C5)C3)C4)C2)c1 [Compound 433],++ (compound exhibited 25-50% inhibition at 0.3 μM)
18,O=C(COc1ccc(Cl)cc1)N1CCc2c(ncnc2NC(=O)C23CC4CC(CC(C4)C2)C3)C1 [Compound 436],++ (compound exhibited 25-50% inhibition at 0.3 μM)
19,O=C(Cc1ccc(Cl)cc1)N1CCc2c(ncnc2NC(=O)C23CC4CC(CC(C4)C2)C3)C1 [Compound 437],+ (compound exhibited 0-25% inhibition at 0.3 μM)
20,O=C(c1ccc(C(F)(F)F)cc1F)N1CCc2c(ncnc2NC(=O)C23CC4CC(CC(C4)C2)C3)C1 [Compound 438],++ (compound exhibited 25-50% inhibition at 0.3 μM)
21,O=C(c1cc(F)cc(C(F)(F)F)c1)N1CCc2c(ncnc2NC(=O)C23CC4CC(CC(C4)C2)C3)C1 [Compound 439],++ (compound exhibited 25-50% inhibition at 0.3 μM)
22,O=C(c1ccccc1C(F)(F)F)N1CCc2c(ncnc2NC(=O)C23CC4CC(CC(C4)C2)C3)C1 [Compound 442],++ (compound exhibited 25-50% inhibition at 0.3 μM)
23,O=C(c1cc(C(F)(F)F)ccc1Cl)N1CCc2c(ncnc2NC(=O)C23CC4CC(CC(C4)C2)C3)C1 [Compound 443],++ (compound exhibited 25-50% inhibition at 0.3 μM)
24,O=C(c1c(F)cccc1Cl)N1CCc2c(ncnc2NC(=O)C23CC4CC(CC(C4)C2)C3)C1 [Compound 444],+ (compound exhibited 0-25% inhibition at 0.3 μM)
25,O=C(c1cccnc1Oc1ccccc1)N1CCc2c(ncnc2NC(=O)C23CC4CC(CC(C4)C2)C3)C1 [Compound 446],++ (compound exhibited 25-50% inhibition at 0.3 μM)
26,O=C(c1ccc(F)cc1F)N1CCc2c(ncnc2NC(=O)C23CC4CC(CC(C4)C2)C3)C1 [Compound 449],++ (compound exhibited 25-50% inhibition at 0.3 μM)

row,SMILES,IL-1β % inhibition
1,Cc1ccccc1C(=O)N1CCc2c(ncnc2NC(=O)C23CC4CC(CC(C4)C2)C3)C1 [Compound 450],+ (compound exhibited 0-25% inhibition at 0.3 μM)
2,O=C(c1cc(F)ccc1F)N1CCc2c(ncnc2NC(=O)C23CC4CC(CC(C4)C2)C3)C1 [Compound 451],+ (compound exhibited 0-25% inhibition at 0.3 μM)
3,O=C(c1ccccc1F)N1CCc2c(ncnc2NC(=O)C23CC4CC(CC(C4)C2)C3)C1 [Compound 452],++ (compound exhibited 25-50% inhibition at 0.3 μM)
4,O=C(c1ccc(Cl)nc1)N1CCc2c(ncnc2NC(=O)C23CC4CC(CC(C4)C2)C3)C1 [Compound 453],+ (compound exhibited 0-25% inhibition at 0.3 μM)
5,O=C(c1cccc(Cl)c1Cl)N1CCc2c(ncnc2NC(=O)C23CC4CC(CC(C4)C2)C3)C1 [Compound 454],++ (compound exhibited 25-50% inhibition at 0.3 μM)
6,O=C(c1ccc2ccccc2c1)N1CCc2c(ncnc2NC(=O)C23CC4CC(CC(C4)C2)C3)C1 [Compound 460],+ (compound exhibited 0-25% inhibition at 0.3 μM)
7,Cc1ccc(C(=O)N2CCc3c(ncnc3NC(=O)C34CC5CC(CC(C5)C3)C4)C2)cc1 [Compound 461],+ (compound exhibited 0-25% inhibition at 0.3 μM)
8,Cc1cc(C(=O)N2CCc3c(ncnc3NC(=O)C34CC5CC(CC(C5)C3)C4)C2)c(C)o1 [Compound 463],++ (compound exhibited 25-50% inhibition at 0.3 μM)
9,O=C(c1ccccc1Cl)N1CCc2c(ncnc2NC(=O)C23CC4CC(CC(C4)C2)C3)C1 [Compound 464],++ (compound exhibited 25-50% inhibition at 0.3 μM)
10,O=C(c1ccno1)N1CCc2c(ncnc2NC(=O)C23CC4CC(CC(C4)C2)C3)C1 [Compound 466],+ (compound exhibited 0-25% inhibition at 0.3 μM)
11,O=C(Cc1ccccc1Br)N1CCc2c(ncnc2NC(=O)C23CC4CC(CC(C4)C2)C3)C1 [Compound 470],+ (compound exhibited 0-25% inhibition at 0.3 μM)
12,O=C(c1ccc2ccccc2n1)N1CCc2c(ncnc2NC(=O)C23CC4CC(CC(C4)C2)C3)C1 [Compound 471],++ (compound exhibited 25-50% inhibition at 0.3 μM)
13,COc1ccc(C(=O)N2CCc3c(ncnc3NC(=O)C34CC5CC(CC(C5)C3)C4)C2)cc1F [Compound 475],++ (compound exhibited 25-50% inhibition at 0.3 μM)
14,COc1ccc(C(=O)N2CCc3c(ncnc3NC(=O)C34CC5CC(CC(C5)C3)C4)C2)cc1OC [Compound 476],++ (compound exhibited 25-50% inhibition at 0.3 μM)
15,O=C(c1cc(Cl)cc(Cl)c1)N1CCc2c(ncnc2NC(=O)C23CC4CC(CC(C4)C2)C3)C1 [Compound 479],+ (compound exhibited 0-25% inhibition at 0.3 μM)
16,CS(=O)(=O)N1CCc2c(ncnc2NC(=O)C23CC4CC(CC(C4)C2)C3)C1 [Compound 480],+ (compound exhibited 0-25% inhibition at 0.3 μM)
17,Cc1ccc(S(=O)(=O)N2CCc3c(ncnc3NC(=O)C34CC5CC(CC(C5)C3)C4)C2)cc1 [Compound 482],++ (compound exhibited 25-50% inhibition at 0.3 μM)
18,O=C(Nc1ncnc2c1CCN(S(=O)(=O)c1ccc3ccccc3c1)C2)C12CC3CC(CC(C3)C1)C2 [Compound 483],+++ (compound exhibited 50-75% inhibition at 0.3 μM)
19,CCCS(=O)(=O)N1CCc2c(ncnc2NC(=O)C23CC4CC(CC(C4)C2)C3)C1 [Compound 485],+ (compound exhibited 0-25% inhibition at 0.3 μM)
20,CCS(=O)(=O)N1CCc2c(ncnc2NC(=O)C23CC4CC(CC(C4)C2)C3)C1 [Compound 486],+ (compound exhibited 0-25% inhibition at 0.3 μM)
21,COc1ccc(S(=O)(=O)N2CCc3c(ncnc3NC(=O)C34CC5CC(CC(C5)C3)C4)C2)cc1 [Compound 487],++ (compound exhibited 25-50% inhibition at 0.3 μM)
22,O=C(Nc1ncnc2c1CCN(S(=O)(=O)c1ccc(Cl)cc1)C2)C12CC3CC(CC(C3)C1)C2 [Compound 488],+ (compound exhibited 0-25% inhibition at 0.3 μM)
23,COc1ccc(S(=O)(=O)N2CCc3c(ncnc3NC(=O)C34CC5CC(CC(C5)C3)C4)C2)cc1OC [Compound 489],+++ (compound exhibited 50-75% inhibition at 0.3 μM)
24,O=C(Nc1ncnc2c1CCN(S(=O)(=O)c1ccc(F)cc1)C2)C12CC3CC(CC(C3)C1)C2 [Compound 490],+++ (compound exhibited 50-75% inhibition at 0.3 μM)
25,O=C(Nc1ncnc2c1CCN(S(=O)(=O)Cc1ccccc1)C2)C12CC3CC(CC(C3)C1)C2 [Compound 491],+ (compound exhibited 0-25% inhibition at 0.3 μM)
26,O=C(Nc1ncnc2c1CCN(S(=O)(=O)c1cccc(C(F)(F)F)c1)C2)C12CC3CC(CC(C3)C1)C2 [Compound 492],+++ (compound exhibited 50-75% inhibition at 0.3 μM)
